Results reported in US11173151B2, “Substituted triazole derivatives and uses thereof” (BAYER AKTIENGESELLSCHAFT, priority 2017, dated 2021).

Tests used:
human V2 receptor = molecular target: T1, human V2 receptor (Homo sapiens, UniProt P30518); test: Cellular in vitro assay for determining vasopressin receptor activity, V2 receptor cell line (CHO, CRE-luciferase); format: cell-based; details: CHO cell line transfected with human V2 receptor; [Arg8]-vasopressin at EC50 concentration, 3 hours; read-out: IC50 hV2
T1 construct: expressed in transfected cells; host or cells: CHO K1 (ATCC) expressing firefly luciferase under a CRE-responsive promoter
Procedure: (§1) B-1. Cellular In Vitro Assay for Determining Vasopressin Receptor Activity
(§2) The identification of agonists and antagonists of the V1a and V2 vasopressin receptors from humans, rats and dogs as well as the quantification of the activity of the compounds of the invention is carried out using recombinant cell lines. These cell lines originally derive from a hamster's ovary epithelial cell (Chinese Hamster Ovary, CHO K1, ATCC: American Type Culture Collection, Manassas, Va. 20108, USA). The test cell lines constitutively express the human, rat or dog V1a or V2 receptors. In case of the Gαq-coupled V1a receptors, cells are also stably transfected with a modified form of the calcium-sensitive photoproteins aequorin (human and rat V1a) or obelin (dog V1a), which, after reconstitution with the cofactor coelenterazine, emit light when there are increases in free calcium concentrations [Rizzuto R, Simpson A W, Brini M, Pozzan T, Nature 358, 325-327 (1992); Illarionov B A, Bondar V S, Illarionova V A, Vysotski E S, Gene 153 (2), 273-274 (1995)]. The resulting vasopressin receptor cells react to stimulation of the recombinantly expressed V1a receptors by intracellular release of calcium ions, which can be quantified by the resulting photoprotein luminescence. The Gs-coupled V2 receptors are stably transfected into cell lines expressing the gene for firefly luciferase under control of a CRE-responsible promoter. Activation of V2 receptors induces the activation of the CRE-responsive promoter via cAMP increase, thereby inducing the expression of firefly luciferase. The light emitted by photoproteins of V1a cell lines as well as the light emitted by firefly luciferase of V2 cell lines corresponds to the activation or inhibition of the respective vasopressin receptor. The bioluminescence of the cell lines is detected using a suitable luminometer [Milligan G, Marshall F, Rees S, Trends in Pharmacological Sciences 17, 235-237 (1996)].
Vasopressin V2 Receptor Cell Lines:
On the day before the assay, the cells are plated out in culture medium (DMEM/F12, 2% FCS, 2 mM glutamine, 10 mM HEPES) in 384-well microtiter plates and kept in a cell incubator (96% humidity, 5% v/v CO2, 37° C.). On the day of the assay, test compounds in various concentrations and the agonist [Arg^8]-vasopressin at EC50 concentration are added together to the wells, and plates are incubated for 3 hours in a cell incubator. Upon addition of the cell lysis reagent Triton™ and the substrate luciferin, luminescence of firefly luciferase is measured in a luminometer.
(§3) Table 1A below lists individual IC50 values for the compounds of the invention (including racemic mixtures as well as separated enantiomers) that were obtained from cell lines transfected with the human V1a or V2 receptor: […]

human V1a receptor = molecular target: T2, human V1a receptor (Homo sapiens, UniProt P37288); test: Cellular in vitro assay for determining vasopressin receptor activity, V1a receptor cell line (CHO, aequorin luminescence); format: cell-based; details: for IC50: CHO cell line transfected with human V1a receptor, [Arg]-vasopressin at EC50 concentration, read-out: IC50 hV1a; for ratio IC50 hV2/hV1a: selectivity ratio IC50 hV2 / IC50 hV1a
T2 construct: expressed in transfected cells; host or cells: CHO K1 (ATCC), also stably transfected with a modified aequorin
Procedure: as §1, §2
Vasopressin V1a Receptor Cell Lines:
On the day before the assay, the cells are plated out in culture medium (DMEM/F12, 2% FCS, 2 mM glutamine, 10 mM HEPES, 5 μg/ml coelenterazine) in 384-well microtiter plates and kept in a cell incubator (96% humidity, 5% v/v CO2, 37° C.). On the day of the assay, test compounds in various concentrations are placed for 10 minutes in the wells of the microtiter plate before the agonist [Arg]-vasopressin at EC50 concentration is added. The resulting light signal is measured immediately in a luminometer.
as §3

T2 sequence (P37288 whole entry): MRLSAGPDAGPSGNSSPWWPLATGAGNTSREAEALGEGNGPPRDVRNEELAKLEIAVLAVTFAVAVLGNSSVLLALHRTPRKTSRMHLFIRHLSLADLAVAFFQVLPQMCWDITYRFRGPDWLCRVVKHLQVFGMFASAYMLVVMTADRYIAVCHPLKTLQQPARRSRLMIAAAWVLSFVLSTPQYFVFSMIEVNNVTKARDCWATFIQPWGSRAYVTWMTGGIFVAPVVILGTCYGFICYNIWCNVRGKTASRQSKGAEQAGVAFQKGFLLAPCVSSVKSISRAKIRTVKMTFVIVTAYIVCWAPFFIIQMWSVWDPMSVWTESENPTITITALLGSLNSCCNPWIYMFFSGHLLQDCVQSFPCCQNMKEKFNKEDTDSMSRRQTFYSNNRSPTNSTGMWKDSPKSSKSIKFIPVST
T1 sequence (P30518 whole entry): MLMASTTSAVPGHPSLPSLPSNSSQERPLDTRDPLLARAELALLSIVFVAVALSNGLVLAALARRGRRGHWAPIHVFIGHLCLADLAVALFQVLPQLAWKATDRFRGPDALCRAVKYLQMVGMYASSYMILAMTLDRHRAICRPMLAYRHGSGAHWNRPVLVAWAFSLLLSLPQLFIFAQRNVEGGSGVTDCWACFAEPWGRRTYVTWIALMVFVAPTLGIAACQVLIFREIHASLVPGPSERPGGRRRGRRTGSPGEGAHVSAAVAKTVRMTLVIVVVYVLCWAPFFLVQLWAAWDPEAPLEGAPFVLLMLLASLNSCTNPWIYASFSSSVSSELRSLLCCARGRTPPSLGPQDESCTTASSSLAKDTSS

SMILES | IC50 (human V2 receptor) [nM] | IC50 (human V1a receptor) [nM] | ratio IC50 hV2/hV1a (human V1a receptor)
CCC(C)NC(=O)c1ccccc1-n1cnc(Cn2nc(-c3ccc(Cl)cc3)n(C[C@H](O)C(F)(F)F)c2=O)n1 (mixture of isomers) [Example 204, N-[Butan-2-yl]-2-[3-({3-(4-chlorophenyl)-5-oxo-4-[(2S)-3,3,3-trifluoro-2-hydroxypropyl]-4,5-dihydro-1H-1,2,4-triazol-1-yl}methyl)-1H-1,2,4-triazol-1-yl]benzamide] | 115 | 1.25 | 92.0
O=C(NC1CCOC1)c1ccccc1-n1cnc(Cn2nc(-c3ccc(Cl)cc3)n(C[C@H](O)C(F)(F)F)c2=O)n1 (mixture of isomers) [Example 208, 2-[3-({3-(4-Chlorophenyl)-5-oxo-4-[(2S)-3,3,3-trifluoro-2-hydroxypropyl]-4,5-dihydro-1H-1,2,4-triazol-1-yl}methyl)-1H-1,2,4-triazol-1-yl]-N-[tetrahydrofuran-3-yl]benzamide] | 95.5 | 2.4 | 39.8
CC1CCCC(NC(=O)c2ccccc2-n2cnc(Cn3nc(-c4ccc(Cl)cc4)n(C[C@H](O)C(F)(F)F)c3=O)n2)C1 (mixture of isomers) [Example 224, 2-[3-({3-(4-Chlorophenyl)-5-oxo-4-[(2S)-3,3,3-trifluoro-2-hydroxypropyl]-4,5-dihydro-1H-1,2,4-triazol-1-yl}methyl)-1H-1,2,4-triazol-1-yl]-N-(3-methylcyclohexyl)benzamide] | 145 | 12.6 | 11.5
O=C(NC1CCOC1=O)c1ccccc1-n1cnc(Cn2nc(-c3ccc(Cl)cc3)n(C[C@H](O)C(F)(F)F)c2=O)n1 (mixture of isomers) [Example 231, 2-[3-({3-(4-Chlorophenyl)-5-oxo-4-[(2S)-3,3,3-trifluoro-2-hydroxypropyl]-4,5-dihydro-1H-1,2,4-triazol-1-yl}methyl)-1H-1,2,4-triazol-1-yl]-N-[(3S)-2-oxotetrahydrofuran-3-yl]benzamide] | 775 | 3.05 | 254.1
CN1CCC(N(C)C(=O)c2ccccc2-n2cnc(Cn3nc(-c4ccc(Cl)cc4)n(C[C@H](O)C(F)(F)F)c3=O)n2)C1 (mixture of isomers) [Example 274, 2-[3-({3-(4-Chlorophenyl)-5-oxo-4-[(2S)-3,3,3-trifluoro-2-hydroxypropyl]-4,5-dihydro-1H-1,2,4-triazol-1-yl}methyl)-1H-1,2,4-triazol-1-yl]-N-methyl-N-[1-methylpyrrolidin-3-yl]benzamide] | 9650 | 22 | 438.6
CC1C(=O)NCCN1C(=O)c1ccccc1-n1cnc(Cn2nc(-c3ccc(Cl)cc3)n(C[C@H](O)C(F)(F)F)c2=O)n1 (mixture of isomers) [Example 280, 4-{2-[3-({3-(4-Chlorophenyl)-5-oxo-4-[(2S)-3,3,3-trifluoro-2-hydroxypropyl]-4,5-dihydro-1H-1,2,4-triazol-1-yl}methyl)-1H-1,2,4-triazol-1-yl]benzoyl}-3-methylpiperazin-2-one] | 10100 | 78.5 | 129.3
CC1COCCN1C(=O)c1ccccc1-n1cnc(Cn2nc(-c3ccc(Cl)cc3)n(C[C@H](O)C(F)(F)F)c2=O)n1 (mixture of isomers) [Example 282, 5-(4-Chlorophenyl)-2-{[1-(2-{[3-methylmorpholin-4-yl]carbonyl}phenyl)-1H-1,2,4-triazol-3-yl]methyl}-4-[(2S)-3,3,3-trifluoro-2-hydroxypropyl]-2,4-dihydro-3H-1,2,4-triazol-3-one] | 2350 | 2.35 | 1000.0
CC(O)CNC(=O)c1ccccc1-n1cnc(Cn2nc(-c3ccc(Cl)cc3)n(C[C@H](O)C(F)(F)F)c2=O)n1 (mixture of isomers) [Example 292, 2-[3-({3-(4-Chlorophenyl)-5-oxo-4-[(2S)-3,3,3-trifluoro-2-hydroxypropyl]-4,5-dihydro-1H-1,2,4-triazol-1-yl}methyl)-1H-1,2,4-triazol-1-yl]-N-[2-hydroxypropyl]benzamide] | 64.5 | 2.95 | 21.9
O=C(NCC(O)CO)c1ccccc1-n1cnc(Cn2nc(-c3ccc(Cl)cc3)n(C[C@H](O)C(F)(F)F)c2=O)n1 (mixture of isomers) [Example 297, 2-[3-({3-(4-Chlorophenyl)-5-oxo-4-[(2S)-3,3,3-trifluoro-2-hydroxypropyl]-4,5-dihydro-1H-1,2,4-triazol-1-yl}methyl)-1H-1,2,4-triazol-1-yl]-N-[2,3-dihydroxypropyl]benzamide] | 1400 | 5.05 | 277.2

The next lines start with the values.

IC50 (human V2 receptor) [nM] | IC50 (human V1a receptor) [nM] | ratio IC50 hV2/hV1a (human V1a receptor) | SMILES
1050 | 2.5 | 422.0 | COC1CCCN(C(=O)c2ccccc2-n2cnc(Cn3nc(-c4ccc(Cl)cc4)n(C[C@H](O)C(F)(F)F)c3=O)n2)C1 (mixture of isomers) [Example 269, 5-(4-Chlorophenyl)-2-{[1-(2-{[3-methoxypiperidin-1-yl]carbonyl}phenyl)-1H-1,2,4-triazol-3-yl]methyl}-4-[(2S)-3,3,3-trifluoro-2-hydroxypropyl]-2,4-dihydro-3H-1,2,4-triazol-3-one]
1440 | 2.1 | 685.7 | CC1SCCN1C(=O)c1ccccc1-n1cnc(Cn2nc(-c3ccc(Cl)cc3)n(C[C@H](O)C(F)(F)F)c2=O)n1 (mixture of isomers) [Example 270, 5-(4-Chlorophenyl)-2-{[1-(2-{[2-methyl-1,3-thiazolidin-3-yl]carbonyl}phenyl)-1H-1,2,4-triazol-3-yl]methyl}-4-[(2S)-3,3,3-trifluoro-2-hydroxypropyl]-2,4-dihydro-3H-1,2,4-triazol-3-one]
1240 | 2.55 | 484.3 | CC1CCCN(C(=O)c2ccccc2-n2cnc(Cn3nc(-c4ccc(Cl)cc4)n(C[C@H](O)C(F)(F)F)c3=O)n2)C1C (mixture of isomers) [Example 275, 5-(4-Chlorophenyl)-2-[(1-{2-[(2,3-dimethylpiperidin-1-yl)carbonyl]phenyl}-1H-1,2,4-triazol-3-yl)methyl]-4-[(2S)-3,3,3-trifluoro-2-hydroxypropyl]-2,4-dihydro-3H-1,2,4-triazol-3-one]
7500 | 6.05 | 1239.7 | CC1CN(C(=O)c2ccccc2-n2cnc(Cn3nc(-c4ccc(Cl)cc4)n(C[C@H](O)C(F)(F)F)c3=O)n2)CCO1 (mixture of isomers) [Example 283, 5-(4-Chlorophenyl)-2-{[1-(2-{[2-methylmorpholin-4-yl]carbonyl}phenyl)-1H-1,2,4-triazol-3-yl]methyl}-4-[(2S)-3,3,3-trifluoro-2-hydroxypropyl]-2,4-dihydro-3H-1,2,4-triazol-3-one]
1540 | 3.3 | 468.2 | O=C(c1ccccc1-n1cnc(Cn2nc(-c3ccc(Cl)cc3)n(C[C@H](O)C(F)(F)F)c2=O)n1)N1CCC(O)C1 (mixture of isomers) [Example 298, 5-(4-Chlorophenyl)-2-{[1-(2-{[3-hydroxypyrrolidin-1-yl]carbonyl}phenyl)-1H-1,2,4-triazol-3-yl]methyl}-4-[(2S)-3,3,3-trifluoro-2-hydroxypropyl]-2,4-dihydro-3H-1,2,4-triazol-3-one]
